Assays:
mdx mice [1] = assay: Evans blue dye uptake (sarcolemmal integrity) in mdx muscle; assay type: in vivo, mouse; conditions: metformin-treated mdx, 28 days; untreated (MS) 42%
Experimental: (§1) Wild-type (C57BL-10) and mdx mice (C57BL/10ScSn-DMD/^mdx) were purchased from Jackson Laboratories (Bar Harbour, Me.) and housed in the University of Ottawa Animal Care Facility. Mice aged 3-4 weeks (peak necrotic stage) were surgically implanted with an (Alzet) osmotic mini-pump containing metformin or insulin for 14 and 28 days. Animals were randomly assigned to experimental or control treatment groups. Depending on the experiment, Mdx mice either received 100 mg/kg/d of metformin (Aldrich) (mdx-M) or 0.75 U of insulin (Sigma) (mdx-I). Drug concentrations were based on the effective dose range used in diabetic mouse models (Bailey and Puah, 1986; Cohen et al., 2004)
To measure sarcolemmal integrity, treated and untreated mdx mice were injected intravenously through the dorsal tail vein with 50 ul/10 g of 1% Evans Blue Dye (EBD, Sigma) in sterilized phosphate-buffered saline (PBS 7.4). Skeletal muscle was harvested 6-8 hrs post-injection and prepared for immunofluorescence as previously described. To visualize sarcolemmal membrane, EBD infiltrated fibers sections were incubated in anti-laminin (Sigma) at 4° C. overnight and then mounted in fluorescent mounting medium (DAKO).

mdx mice [2] = assay: Rotorod test of motor performance in mdx mice; assay type: in vivo, mouse; conditions: mdx mice treated 28 days, by the 4th trial; 15 rpm start, 0.1 rpm/s acceleration
Experimental: Metformin treated mdx-mice display improved motor performance compared to saline-treated mdx-mice. Mice (mdx) 3-4 weeks of age were treated with metformin or saline for 28 days according to the protocol described above. At the end of the treatment phase, a rotorod test was performed, which was repeated daily for 3 consecutive days. The mice were 7-8 weeks of age when tested, thus young adults. The initial rotorod speed for each trial was 15 rpm with gradual acceleration at a rate of 0.1 rpm per second. Mean fall latency time refers to the average amount of time the mice could run on the rotating rod (seconds). As soon as the animals fell from the rod, the time was stopped. The average value shown represents the average of each trial (1-4) performed for 3 consecutive days. The rotorod test is a behavioural test of motor coordination or performance and fatigue resistance or exercise tolerance, where the earlier time points are essentially an adaptation to the rotorod.

GSK-3β = GSK-3β kinase activity in skeletal muscle of treated mdx mice; assay type: in vivo, mouse; conditions: for reduction of GSK-3β activity compared to mdx-S control: metformin 100 mg/kg/day by osmotic pump
Experimental: (§2) Studies were conducted in which metformin was administered to 4-week old mdx mice followed by extensive biochemical and morphologic analysis. The 4-week age group coincides with the early muscle degeneration/regeneration cycle and as such tests the ability of metformin to limit the degeneration process that begins at 3-4 weeks of age in this murine model of DMD. Metformin delivery was accomplished with the use of osmotic pump technology (Alzet). Alzet osmotic pumps are produced in a variety of formats ideal for use in murine models. The pumps were preloaded with metformin and then surgically implanted in a subcutaneous position suitable for long-term delivery, i.e. mid-scapular region. The Alzet osmotic pump was loaded with a metformin concentration selected to deliver 100 mg/kg/body wt per day, per standard diabetic treatment regimes, at 28 days of continuous infusion (Misra 2008). A skilled person will appreciate that metformin could be given orally or by other routes of administration to humans but the osmotic pump is a convenient way to regulate administration over the 28 days of the murine model. Control animals were implanted with osmotic pumps containing saline. Given that metformin is an anti-hyperglycemic agent, blood glucose levels were measured.
as §1, with “Drug concentrations were based on the effective dose range used in diabetic mouse models (Bailey and Puah, 1986; Cohen et al., 2004)” left out
(§3) Muscle samples were homogenized and quantified for protein concentration using Brafford Assay. […] Incorporation of radioactivity was counted using liquid scintillation counter. […]

AKT = AKT kinase activity in skeletal muscle of treated mdx mice; assay type: in vivo, mouse; conditions: for increase in AKT kinase activity compared to mdx-S control: metformin 100 mg/kg/day by osmotic pump
Experimental: as §2
as §1, with “Drug concentrations were based on the effective dose range used in diabetic mouse models (Bailey and Puah, 1986; Cohen et al., 2004)” left out
as §3

AMPK = AMPK kinase activity in skeletal muscle of treated mdx mice; assay type: in vivo, mouse; conditions: metformin 100 mg/kg/day by osmotic pump, 28 days
Experimental: as §2, with “measured. […]” for “measured.”

DGC = DGC component and utrophin protein levels and sarcolemmal distribution in mdx muscle; assay type: in vivo, mouse
Experimental: as §2, §1
(§4) Control groups were surgically implanted with the mini-pump containing saline (wild type [WT-S], mdx-S). Following completion of drug treatment, animals were sacrificed by cervical dislocation and skeletal muscles (tibialis anterior TA, diaphragm DIA, gastrocnemius Gastro, and Soleus) were harvested. For analysis of biochemistry, skeletal muscles were snap frozen in liquid nitrogen. For preparation of paraffin sections skeletal muscles were fixed in formalin.
Paraffin embedded muscles were section transversely (10 µm) and deparaffinized in descending alcohols, blocked with 3% BSA and permeabilized in 0.1% triton in PBS for 1 h at RT. Sections were then incubated in primary antibodies against GLUT4 (Chemicon), Laminin (Sigma), Utrophin, 13-Dystroglycan and γ-Sarcoglycan were purchased from Vector Laboratories. In order to amplify primary antibody signal the avidin/biotin complex technique was performed on muscle sections. As well primary mouse antibodies were diluted in M.O.M diluent (M.O.M. Basic Kit, Vector Laboratories). In brief, sections were incubated with primary antibody overnight at 4° C. then incubated in biotinylated secondary antibody for 30 mins at RT, followed by incubation in FITC-streptoavidin conjugated secondary antibody (Molecular Probes) for 1 h at RT. Sections were then washed and mounted using fluorescence mounting medium (DAKO).
Muscle samples were homogenized, lyzed and quantified for protein concentration using Brafford Assay. Equal concentrations of protein samples were resolved by 6-8% SDS-PAGE and transferred to nitrocellulose membranes. Primary antibodies against IRS, IRS^y941, IRS^S307, anti-MHC (clone MF20) were used at a dilution of 1:500. Rabbit polyclonal antibodies were detected using horseradish peroxidase-conjugated anti-rabbit at dilution of 1:5000. Immunoblots were developed using with Supersignal West Pico Chemiluminescence substrate.

mdx mice [3] = assay: Monitoring of blood glucose and adverse health effects during drug treatment of mdx mice; assay type: in vivo, mouse; conditions: metformin 100 mg/kg/day, throughout drug treatment
Experimental: as §2

GLUT4 = GLUT4 localization by immunohistochemistry in mdx skeletal muscle; assay type: in vivo, mouse
Experimental: as §2, with “A skilled person will appreciate that metformin could be given orally or by other routes of administration to humans but the osmotic pump is a convenient way to regulate administration over the 28 days of the murine model. Control animals were implanted with osmotic pumps containing saline.” left out, “measured. […]” for “measured.”
Paraffin embedded muscles were section transversely (10 µm) and deparaffinized in descending alcohols, blocked with 3% BSA and permeabilized in 0.1% triton in PBS for 1 h at RT. […] Sections were then washed and mounted using fluorescence mounting medium (DAKO).

[4] = cited from earlier work
mdx mice [5] = assay: H&E myofiber pathology and morphometry in mdx skeletal muscle; assay type: in vivo, mouse; conditions: for proportion of smaller myofibers (CSA<1500 μm^2): mdx-M
Experimental: as §2, §1, §4
Muscle sections were rehydrated in xylene followed by descending alcohols (100%, 95%, 80%), incubated in Shandon Instant Hematoxylin (Fisher Scientific) for 3 mins, washed 1 min, incubated in Eosin (Fisher Scientific) for 3 mins and then dehydrated in ascending alcohols followed by incubation in xylene. Stained sections were mounted with permount (Fisher Scientific). Quantification of morphometric parameters was performed on ˜1000 fibers per muscle.

mdx mice [6] = assay: Glycogen deposition by periodic acid Schiff staining in mdx skeletal muscle; assay type: in vivo, mouse; conditions: TA muscle of mdx mice, metformin treatment, PAS staining
Experimental: as §2, with “measured. […]” for “measured.”

[7] = immunoblot, compared to mdx-Saline control
[8] = immunohistochemistry, mdx myofibers
[9] = 28-day insulin delivery (0.75 U)

Compound: CN(C)C(=N)NC(=N)N [Metformin, N,N-dimethylimidodicarbonimidicdiamide]
- myofibers positively stained for EBD (mdx mice [1]): 22%
- rotorod running time (fall latency) (mdx mice [2]): significant improvement in running time
- reduction of GSK-3β activity compared to mdx-S control (GSK-3β; DIA muscle): 66%
- reduction of GSK-3β activity compared to mdx-S control (GSK-3β; TA muscle): 31%
- increase in AKT kinase activity compared to mdx-S control (AKT; DIA muscle): ~80%
- increase in AKT kinase activity compared to mdx-S control (AKT; TA muscle): 83%
- elevation in AMPK kinase activity over baseline levels in mdx-S control (AMPK; DIA muscle): 55%
- elevation in AMPK kinase activity over baseline levels in mdx-S control (AMPK; TA muscle): 75%
- utrophin protein levels (DGC; gastrocnemius, compared to mdx-Saline control): increased
- β-dystroglycan protein expression (DGC; [7]): increased
- γ-sarcoglycan protein expression (DGC; [7]): increased
- sarcolemmal distribution of β-dystroglycan (DGC; [8]): notable increase
- sarcolemmal distribution of γ-sarcoglycan (DGC; [8]): notable increase
- utrophin along the extrasynaptic sarcolemma (DGC; [8]): robust increase
- hypoglycemia or adverse health effects (mdx mice [3]): no evidence of hypoglycemia or adverse health effects
- GLUT4 localization (GLUT4; TA muscle of mdx mice, metformin treatment): restoration of GLUT4 protein to that observed in wild-type skeletal muscle
- incidence of lactic acidosis ([4]; patients): about 0.03 cases per 1000 patients years of treatment
- mortality risk of lactic acidosis ([4]; patients): about 0.015 per 1000 patient-years
- gastrointestinal adverse effects, notably diarrhea ([4]; remit when the dosage is reduced): less than 20 % of patients
- proportion of smaller myofibers (CSA<1500 μm^2) (mdx mice [5]; DIA, untreated 38%): 23%
- focal necrosis (mdx mice [5]; TA, DIA, gastrocnemius and soleus of mdx mice, 28-day metformin vs saline): significant decline in the focal necrosis
- proportion of smaller myofibers (CSA<1500 μm^2) (mdx mice [5]; TA, untreated 22%): 14%
- fibers displaying central nuclei (mdx mice [5]; mdx-M fibers after 28 days metformin, untreated mdx-S 55%): ~38%
- skeletal muscle glycogen content (mdx mice [6]): complete normalization of glycogen content

Compound: insulin: insulin (Sigma), 0.75 U delivered by osmotic mini-pump to mdx mice (mdx-I)
- GSK3β kinase activity (GSK-3β; [9]): only marginal changes
- AKT kinase activity (AKT; [9]): no significant change
- GLUT4 localization (GLUT4; mdx mice following insulin treatment): remained localized in a perinuclear domain
- fiber size variability and protection against degeneration (H&E) (mdx mice [5]; TA and DIA fibers of mdx-I): no reduction in fiber size variability and protection against degeneration
- number of centrally located nuclei (mdx mice [5]; mdx-I vs mdx-S): remained comparable
- fiber size distribution (morphometric analysis) (mdx mice [5]; mdx-I, in particular the DIA): no overall change

Source: patent US8993633B2, “Treatment of muscle disease characterized by insulin resistance” (Fate Therapeutics, (Canada) Inc., priority 2009, dated 2015)
